# Source: patent US8563000B2, “Melanocortin receptor ligands modified with hydantoin” (Ipsen Pharma S.A.S., priority 2007, dated 2013)
# Legend:
# hMC1 [1] = biological target: T1, hMC1 (Homo sapiens, UniProt Q01726); assay: Cyclic AMP bioassay (ECL), CHO-K1 cells expressing hMC1; assay type: cell-based; conditions: intracellular cAMP
# T1 construct: expressed in transfected cells; host or cells: CHO-K1
# Description: (§3) Intracellular cyclic AMP (cAMP) levels were determined by an electrochemiluminescence (ECL) assay (Meso Scale Discovery®, Gaithersburg, Md.; referred to hereinafter as “MSD”). […] Transgenic CHO-K1 cells stably expressing hMC receptor subtypes 1, 3, 4 or 5 were dispensed at a density of approximately 7,000 cells/well in 384-well Multi-Array® plates (MSD) containing integrated carbon electrodes and coated with anti-cAMP antibody. Increasing concentrations of the test compounds were added and the cells were incubated for approximately 40 minutes at approximately 37° C. […] At the end of the second incubation period read buffer (Tris-buffered solution containing an ECL co-reactant and Triton X-100 at ph 7.8) was added and the cAMP levels in the cell lysates were immediately determined by ECL detection with a Sector Imager 6000 Reader® (MSD). Data was analyzed using a computer-assisted non-linear regression analysis (XL fit; IDBS) and reported as either an EC50 value or a Kb value.
# hMC3 [2] = biological target: T2, hMC3 (Homo sapiens, UniProt P41968); assay: Cyclic AMP bioassay (ECL), CHO-K1 cells expressing hMC3; assay type: cell-based; conditions: intracellular cAMP
# T2 construct: expressed in transfected cells; host or cells: CHO-K1
# Description: as §3
# hMC1 [3] = biological target: T1, hMC1; assay: Radioligand binding assay, [125I]-NDP-α-MSH, CHO-K1 membranes
# Description: (§1) Cellular membranes used for the in vitro receptor binding assays were obtained from transgenic CHO-K1 cells stably expressing hMC-R receptor subtypes 1, 3, 4 or 5. […] The pellets were re-suspended in the same buffer and centrifuged at 50,000 g for 10 minutes at approximately 4° C. The washed pellets containing the cellular membranes were stored at approximately −80° C.
# (§2) Filters were washed three times with 50 mM Tris-HCl at pH 7.4 at a temperature of approximately 0-4° C. and then assayed for radioactivity using a Packard Topcount® scintillation counter. Binding data were analyzed by computer-assisted non-linear regression analysis (XL fit; IDBS).
# hMC4 [4] = biological target: T3, hMC4 (Homo sapiens, UniProt P32245); assay: as above
# T3 construct: expressed in transfected cells; host or cells: CHO-K1
# Description: as §1, §2
# hMC3 [5] = biological target: T2, hMC3; assay: as above
# Description: as §1, §2
# hMC4 [6] = biological target: T3, hMC4; assay: Cyclic AMP bioassay (ECL), CHO-K1 cells expressing hMC4; assay type: cell-based; conditions: intracellular cAMP
# Description: as §3
# hMC5 [7] = biological target: T4, hMC5 (Homo sapiens, UniProt P33032); assay: Cyclic AMP bioassay (ECL), CHO-K1 cells expressing hMC5; assay type: cell-based; conditions: intracellular cAMP
# T4 construct: expressed in transfected cells; host or cells: CHO-K1
# Description: as §3
# hMC5 [8] = biological target: T4, hMC5; assay: Radioligand binding assay, [125I]-NDP-α-MSH, CHO-K1 membranes
# Description: as §1, §2
# T4 sequence (P33032 whole entry): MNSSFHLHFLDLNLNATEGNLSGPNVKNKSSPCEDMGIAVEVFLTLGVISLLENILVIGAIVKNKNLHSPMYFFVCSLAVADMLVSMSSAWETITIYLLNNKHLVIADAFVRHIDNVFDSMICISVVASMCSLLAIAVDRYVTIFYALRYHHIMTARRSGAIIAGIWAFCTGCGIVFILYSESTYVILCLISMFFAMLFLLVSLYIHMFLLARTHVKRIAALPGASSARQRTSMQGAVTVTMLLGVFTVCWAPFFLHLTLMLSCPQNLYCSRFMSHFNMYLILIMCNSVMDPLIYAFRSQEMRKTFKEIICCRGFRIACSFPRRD
# T2 sequence (P41968 whole entry): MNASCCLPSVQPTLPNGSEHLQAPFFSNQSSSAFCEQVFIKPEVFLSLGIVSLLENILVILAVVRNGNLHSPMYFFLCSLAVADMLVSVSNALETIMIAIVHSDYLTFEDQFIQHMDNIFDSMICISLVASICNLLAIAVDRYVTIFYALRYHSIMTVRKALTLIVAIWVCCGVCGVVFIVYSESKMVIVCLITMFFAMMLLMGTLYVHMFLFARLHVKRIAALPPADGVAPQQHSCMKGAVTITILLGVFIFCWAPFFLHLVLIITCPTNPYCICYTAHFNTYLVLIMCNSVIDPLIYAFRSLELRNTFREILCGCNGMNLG
# T3 sequence (P32245 whole entry): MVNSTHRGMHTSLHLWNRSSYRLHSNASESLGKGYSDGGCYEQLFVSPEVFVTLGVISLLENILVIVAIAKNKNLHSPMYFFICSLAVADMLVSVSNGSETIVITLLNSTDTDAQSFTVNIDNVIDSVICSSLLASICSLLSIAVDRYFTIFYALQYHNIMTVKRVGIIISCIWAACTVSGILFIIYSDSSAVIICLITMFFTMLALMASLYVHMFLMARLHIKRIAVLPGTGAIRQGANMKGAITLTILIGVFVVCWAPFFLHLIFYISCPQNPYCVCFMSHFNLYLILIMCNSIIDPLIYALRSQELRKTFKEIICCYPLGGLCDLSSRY
# T1 sequence (Q01726 whole entry): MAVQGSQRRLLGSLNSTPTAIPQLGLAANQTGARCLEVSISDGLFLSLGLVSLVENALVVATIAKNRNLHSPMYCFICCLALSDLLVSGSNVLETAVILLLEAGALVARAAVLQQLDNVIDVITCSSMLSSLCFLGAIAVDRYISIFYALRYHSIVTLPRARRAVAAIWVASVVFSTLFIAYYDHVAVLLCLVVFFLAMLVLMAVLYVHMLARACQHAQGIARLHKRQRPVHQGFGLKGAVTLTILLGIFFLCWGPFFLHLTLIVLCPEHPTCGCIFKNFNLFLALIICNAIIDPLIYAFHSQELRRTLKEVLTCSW
SMILES,EC50 (hMC1 [1]),EC50 (hMC3 [2]),Ki (hMC1 [3]),Ki (hMC4 [4]),Ki (hMC3 [5]),EC50 (hMC4 [6]),EC50 (hMC5 [7]),Ki (hMC5 [8])
C[C@@H]1C(=O)N[C@@H](Cc2cnc[nH]2)C(=O)N[C@H](Cc2ccccc2)C(=O)N[C@@H](CCCNC(=N)N)C(=O)N[C@@H](Cc2c[nH]c3ccccc23)C(=O)N[C@H](C(N)=O)CNC(=O)CC[C@@H]2NC(=O)N1C2=O [cyclo[Hydantoin(C(O)-(Glu-D-Ala))-His-D-Phe-Arg-Trp-Dap]-NH2],56.7 nM,18.2 nM,16.4 nM,4.97 nM,863 nM,0.182 nM,–,–
C[C@@H]1C(=O)N[C@@H](Cc2cnc[nH]2)C(=O)N[C@H](Cc2ccccc2)C(=O)N[C@@H](CCCNC(=N)N)C(=O)N[C@@H](Cc2c[nH]c3ccccc23)C(=O)N[C@H](C(N)=O)CCCNC(=O)C[C@@H]2NC(=O)N1C2=O [cyclo[Hydantoin(C(O)-(Asp-D-Ala))-His-D-Phe-Arg-Trp-Orn]-NH2],56.6 nM,88.6 nM,37.7 nM,7.81 nM,576 nM,4.5 nM,9300 nM,6400 nM
CC[C@H](C)[C@@H]1NC(=O)N([C@H]2CSSC[C@@H](C(N)=O)NC(=O)[C@H](Cc3c[nH]c4ccccc34)NC(=O)[C@H](CCCNC(=N)N)NC(=O)[C@@H](Cc3ccccc3)NC(=O)[C@H](Cc3cnc[nH]3)NC(=O)[C@@H](C)NC2=O)C1=O [cyclo[Hydantoin(C(O)-(Ile-Cys))-D-Ala-His-D-Phe-Arg-Trp-Cys]-NH2],–,–,–,–,–,–,–,> 10000 nM
N=C(N)NCCC[C@@H]1NC(=O)[C@@H](Cc2ccc3ccccc3c2)NC(=O)C2(Cc3ccccc3C2)N2C(=O)N[C@@H](CC(=O)NCCCC[C@@H](C(N)=O)NC(=O)[C@H](Cc3c[nH]c4ccccc34)NC1=O)C2=O [cyclo[Hydantoin(C(O)-(Asp-Aic))-D-2-Nal-Arg-Trp-Lys]-NH2],–,–,9030 nM,35.8 nM,2630 nM,–,–,1160 nM
N=C(N)NCCC[C@@H]1NC(=O)[C@@H](Cc2ccccc2)NC(=O)[C@H](Cc2cnc[nH]2)NC(=O)[C@H](CCC(=O)O)NC(=O)[C@@H](N2C(=O)CNC2=O)CSSC[C@@H](C(N)=O)NC(=O)[C@H](Cc2c[nH]c3ccccc23)NC1=O [cyclo[Hydantoin(C(O)-(Gly-Cys))-Glu-His-D-Phe-Arg-Trp-Cys]-NH2],14.5 nM,21.8 nM,–,–,–,0.576 nM,1780 nM,–
N=C(N)NCCC[C@@H]1NC(=O)[C@@H](Cc2ccc3ccccc3c2)NC(=O)C2(CC2)N2C(=O)N[C@@H](CC(=O)NCCCC[C@@H](C(N)=O)NC(=O)[C@H](Cc3c[nH]c4ccccc34)NC1=O)C2=O [cyclo[Hydantoin(C(O)-(Asp-A3c))-D-2-Nal-Arg-Trp-Lys]-NH2],–,–,7570 nM,420 nM,1920 nM,–,–,2880 nM
CCCC[C@@H](C(=O)N[C@H]1CSSC[C@@H](C(N)=O)NC(=O)[C@H](Cc2c[nH]c3ccccc23)NC(=O)[C@H](CCCNC(=N)N)NC(=O)[C@@H](Cc2ccccc2)NC(=O)[C@H](Cc2cnc[nH]2)NC(=O)[C@@H](C)NC1=O)N1C(=O)N[C@H](C)C1=O [Hydantoin(C(O)-(D-Ala-Nle))-cyclo(Cys-D-Ala-His-D-Phe-Arg-Trp-Cys)-NH2],–,2.56 nM,–,–,–,1.47 nM,–,–
N=C(N)NCCC[C@@H]1NC(=O)[C@@H](Cc2ccc3ccccc3c2)NC(=O)C2(CCCCC2)N2C(=O)N[C@@H](CC(=O)NCCCC[C@@H](C(N)=O)NC(=O)[C@H](Cc3c[nH]c4ccccc34)NC1=O)C2=O [cyclo[Hydantoin(C(O)-(Asp-A6c))-D-2-Nal-Arg-Trp-Lys]-NH2],–,–,2170 nM,16.5 nM,1480 nM,–,–,451 nM
C[C@H]1NC(=O)[C@@H](NC(=O)[C@@H](CCCNC(=N)N)N2C(=O)CNC2=O)CSSC[C@@H](C(N)=O)NC(=O)[C@H](Cc2c[nH]c3ccccc23)NC(=O)[C@H](CCCNC(=N)N)NC(=O)[C@@H](Cc2ccccc2)NC(=O)[C@H](Cc2cnc[nH]2)NC1=O [Hydantoin(C(O)-(Gly-D-Arg))-cyclo(Cys-D-Ala-His-D-Phe-Arg-Trp-Cys)-NH2],7.53 nM,11.6 nM,–,–,–,0.435 nM,9840 nM,–
N=C(N)NCCC[C@@H]1NC(=O)[C@@H](Cc2ccccc2)NC(=O)[C@H](Cc2cnc[nH]2)NC(=O)[C@H](CCC(=O)O)NC(=O)[C@@H](NC(=O)CN2C(=O)CNC2=O)CSSC[C@@H](C(N)=O)NC(=O)[C@H](Cc2c[nH]c3ccccc23)NC1=O [Hydantoin(C(O)-(Gly-Gly))-cyclo(Cys-Glu-His-D-Phe-Arg-Trp-Cys)-NH2],–,–,–,–,–,–,> 10000 nM,–
N=C(N)NCCC[C@@H]1NC(=O)[C@@H](Cc2ccccc2)NC(=O)[C@H](Cc2cnc[nH]2)NC(=O)[C@H](CCC(=O)O)NC(=O)[C@@H](NC(=O)CN2C(=O)N[C@H](CCCNC(=N)N)C2=O)CSSC[C@@H](C(N)=O)NC(=O)[C@H](Cc2c[nH]c3ccccc23)NC1=O [Hydantoin(C(O)-(D-Arg-Gly))-cyclo(Cys-Glu-His-D-Phe-Arg-Trp-Cys)-NH2],18 nM,17.1 nM,9.49 nM,2.95 nM,124 nM,0.16 nM,2710 nM,2260 nM
C[C@H]1NC(=O)[C@@H](NC(=O)CN2C(=O)N[C@H](C)C2=O)CSSC[C@@H](C(N)=O)NC(=O)[C@H](Cc2c[nH]c3ccccc23)NC(=O)[C@H](CCCNC(=N)N)NC(=O)[C@@H](Cc2ccccc2)NC(=O)[C@H](Cc2cnc[nH]2)NC1=O [Hydantoin(C(O)-(D-Ala-Gly))-cyclo(Cys-D-Ala-His-D-Phe-Arg-Trp-Cys)-NH2],4.7 nM,2.22 nM,–,–,–,0.309 nM,355 nM,–
C[C@@H]1C(=O)N[C@@H](Cc2cnc[nH]2)C(=O)N[C@H](Cc2ccccc2)C(=O)N[C@@H](CCCNC(=N)N)C(=O)N[C@@H](Cc2c[nH]c3ccccc23)C(=O)N[C@H](C(N)=O)CNC(=O)C[C@@H]2NC(=O)N1C2=O [cyclo[Hydantoin(C(O)-(Asp-D-Ala))-His-D-Phe-Arg-Trp-Dap]-NH2],–,–,–,–,–,–,–,> 10000 nM
C[C@H]1NC(=O)[C@@H](NC(=O)CN2C(=O)N[C@H](CCCNC(=N)N)C2=O)CSSC[C@@H](C(N)=O)NC(=O)[C@H](Cc2c[nH]c3ccccc23)NC(=O)[C@H](CCCNC(=N)N)NC(=O)[C@@H](Cc2ccccc2)NC(=O)[C@H](Cc2cnc[nH]2)NC1=O [Hydantoin(C(O)-(D-Arg-Gly))-cyclo(Cys-D-Ala-His-D-Phe-Arg-Trp-Cys)-NH2],11.5 nM,23.2 nM,–,–,–,0.513 nM,3950 nM,–
N=C(N)NCCC[C@@H]1NC(=O)[C@@H](Cc2ccccc2)NC(=O)[C@H](Cc2cnc[nH]2)NC(=O)[C@H](CCC(=O)O)NC(=O)[C@@H](NC(=O)[C@@H](CCCNC(=N)N)N2C(=O)CNC2=O)CSSC[C@@H](C(N)=O)NC(=O)[C@H](Cc2c[nH]c3ccccc23)NC1=O [Hydantoin(C(O)-(Gly-D-Arg))-cyclo(Cys-Glu-His-D-Phe-Arg-Trp-Cys)-NH2],12.9 nM,10.3 nM,4.3 nM,1.77 nM,78 nM,0.125 nM,7440 nM,4540 nM
C[C@@H]1C(=O)N[C@@H](Cc2cnc[nH]2)C(=O)N[C@H](Cc2ccccc2)C(=O)N[C@@H](CCCNC(=N)N)C(=O)N[C@@H](Cc2c[nH]c3ccccc23)C(=O)N[C@H](C(N)=O)CCCCNC(=O)CC[C@@H]2NC(=O)N1C2=O [cyclo[Hydantoin(C(O)-(Glu-D-Ala))-His-D-Phe-Arg-Trp-Lys]-NH2],–,22.3 nM,72.6 nM,45.2 nM,1920 nM,3.62 nM,–,–
N=C(N)NCCC[C@@H]1NC(=O)[C@@H](Cc2ccc3ccccc3c2)NC(=O)[C@H](Cc2cnc[nH]2)N2C(=O)N[C@@H](CC(=O)NCCCC[C@@H](C(N)=O)NC(=O)[C@H](Cc3c[nH]c4ccccc34)NC1=O)C2=O [cyclo[Hydantoin(C(O)-(Asp-His))-D-2-Nal-Arg-Trp-Lys]-NH2],–,–,200 nM,–,–,–,–,–
CCCC[C@@H]1NC(=O)N(CC(=O)N[C@H]2CSSC[C@@H](C(N)=O)NC(=O)[C@H](Cc3c[nH]c4ccccc34)NC(=O)[C@H](CCCNC(=N)N)NC(=O)[C@@H](Cc3ccccc3)NC(=O)[C@H](Cc3cnc[nH]3)NC(=O)[C@H](CCC(=O)O)NC2=O)C1=O [Hydantoin(C(O)-(Nle-Gly))-cyclo(Cys-Glu-His-D-Phe-Arg-Trp-Cys)-NH2],–,–,–,–,–,–,> 10000 nM,–
N=C(N)NCCC[C@@H]1NC(=O)[C@@H](Cc2ccc3ccccc3c2)NC(=O)C2(CCCC2)N2C(=O)N[C@@H](CC(=O)NCCCC[C@@H](C(N)=O)NC(=O)[C@H](Cc3c[nH]c4ccccc34)NC1=O)C2=O [cyclo[Hydantoin(C(O)-(Asp-A5c))-D-2-Nal-Arg-Trp-Lys]-NH2],–,–,9940 nM,–,2390 nM,–,–,–
N=C(N)NCCC[C@@H]1NC(=O)[C@@H](Cc2ccc3ccccc3c2)NC(=O)C2(CCNCC2)N2C(=O)N[C@@H](CC(=O)NCCCC[C@@H](C(N)=O)NC(=O)[C@H](Cc3c[nH]c4ccccc34)NC1=O)C2=O [cyclo[Hydantoin(C(O)-(Asp-Apc))-D-2-Nal-Arg-Trp-Lys]-NH2],–,–,1280 nM,266 nM,2760 nM,–,–,–
C[C@@H]1C(=O)N[C@@H](Cc2cnc[nH]2)C(=O)N[C@H](Cc2ccccc2)C(=O)N[C@@H](CCCNC(=N)N)C(=O)N[C@@H](Cc2c[nH]c3ccccc23)C(=O)N[C@H](C(N)=O)CCCNC(=O)CC[C@@H]2NC(=O)N1C2=O [cyclo[Hydantoin(C(O)-(Glu-D-Ala))-His-D-Phe-Arg-Trp-Orn]-NH2],–,39.2 nM,60.4 nM,52.4 nM,2840 nM,4.94 nM,–,–
